From US11124476B2, “Tunable nitric oxide-releasing macromolecules having multiple nitric oxide donor structures” (The University of North Carolina at Chapel Hill, priority 2011, dated 2021)

Test: NO release from NO-releasing co-condensed silica, Nitric Oxide Analyzer, physiological condition
Type: physicochemical
Description: A variety of single and multi-donor co-condensed silica macromolecules were synthesized. […] FIGS. 8A and 8B illustrate the same release profiles with normalized maximum NO concentration. FIG. 8B illustrates the same release profiles, with normalized maximum NO concentration, as FIG. 8A, but is an expanded view of the release profiles. All release profiles were collected with a Nitric Oxide Analyzer under physiological condition at pH=7.4 and 37° C.
To make NO-releasing co-condensed silica with programmed release profile, the different silane diazeniumdiolate monomer solutions were mixed at the pre-set ratios. The mixture is then added into a flask with pre-cooled ethanol with nitrogen protection. The mixture is further cooled to −15° C. and pre-set amount of backbone silane (TEOS or TMOS) is added. When the mixture temperature equilibriums to −15° C., the ammonium hydroxide aqueous solution is added. The reaction is then warmed rapidly to 15° and stirred for additional 3 hours. The content is then filtered. The solid is washed with dry ethanol twice and then dried extensively.

CCCCCCCCCCCCNCCCCCCN(CCCCCCCCCCCC)/[N+]([O-])=N/O [MAP3 diazeniumdiolate]
duration of NO release: only a few minutes
